These results are taken from patent US7803804B2, “Substituted pyrazines for use in the treatment of inflammatory or allergic conditions” (Novartis AG, priority 2005, dated 2010).

The assay has as its target T1, epithelial sodium channel (ENaC) (Homo sapiens, UniProt P37088+P51168+P51170).
T1 construct: host or cells: primary human bronchial epithelial cells (HBECs), differentiated at air-liquid interface
T1 sequence (P37088 1-669): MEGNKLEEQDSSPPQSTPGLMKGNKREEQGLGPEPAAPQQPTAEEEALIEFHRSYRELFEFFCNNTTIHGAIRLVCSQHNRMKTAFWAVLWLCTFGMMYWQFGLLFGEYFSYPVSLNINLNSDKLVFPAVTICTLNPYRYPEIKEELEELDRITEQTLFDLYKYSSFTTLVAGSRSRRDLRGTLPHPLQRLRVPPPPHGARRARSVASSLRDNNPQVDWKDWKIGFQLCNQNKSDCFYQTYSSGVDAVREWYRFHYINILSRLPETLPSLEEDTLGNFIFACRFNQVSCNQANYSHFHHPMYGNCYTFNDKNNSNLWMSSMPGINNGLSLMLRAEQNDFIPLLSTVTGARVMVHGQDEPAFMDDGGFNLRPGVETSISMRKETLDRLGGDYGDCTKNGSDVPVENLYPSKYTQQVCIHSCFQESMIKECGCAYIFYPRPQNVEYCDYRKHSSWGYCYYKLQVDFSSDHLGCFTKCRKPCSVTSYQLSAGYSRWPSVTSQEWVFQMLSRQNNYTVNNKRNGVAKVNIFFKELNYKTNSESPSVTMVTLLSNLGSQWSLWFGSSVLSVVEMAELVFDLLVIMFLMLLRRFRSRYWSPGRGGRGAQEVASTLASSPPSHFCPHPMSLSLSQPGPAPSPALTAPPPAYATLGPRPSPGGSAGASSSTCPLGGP
T1 sequence (P51168 1-640): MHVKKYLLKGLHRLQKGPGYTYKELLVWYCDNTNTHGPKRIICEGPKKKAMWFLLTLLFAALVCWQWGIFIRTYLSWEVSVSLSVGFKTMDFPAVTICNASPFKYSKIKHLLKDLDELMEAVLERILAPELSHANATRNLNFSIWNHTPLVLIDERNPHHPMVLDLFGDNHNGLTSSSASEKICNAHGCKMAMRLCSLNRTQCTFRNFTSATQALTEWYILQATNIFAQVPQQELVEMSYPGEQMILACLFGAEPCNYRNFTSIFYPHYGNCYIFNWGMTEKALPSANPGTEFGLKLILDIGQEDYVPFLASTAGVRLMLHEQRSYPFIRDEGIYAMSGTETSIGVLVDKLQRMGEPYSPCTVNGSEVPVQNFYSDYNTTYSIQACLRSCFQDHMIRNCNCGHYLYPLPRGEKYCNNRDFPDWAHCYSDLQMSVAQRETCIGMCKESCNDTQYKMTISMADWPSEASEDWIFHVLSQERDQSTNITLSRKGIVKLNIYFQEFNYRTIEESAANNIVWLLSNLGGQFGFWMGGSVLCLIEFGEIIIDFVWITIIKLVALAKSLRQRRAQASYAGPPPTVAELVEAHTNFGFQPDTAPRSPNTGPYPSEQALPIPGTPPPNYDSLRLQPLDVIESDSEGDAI
T1 sequence (P51170 1-649): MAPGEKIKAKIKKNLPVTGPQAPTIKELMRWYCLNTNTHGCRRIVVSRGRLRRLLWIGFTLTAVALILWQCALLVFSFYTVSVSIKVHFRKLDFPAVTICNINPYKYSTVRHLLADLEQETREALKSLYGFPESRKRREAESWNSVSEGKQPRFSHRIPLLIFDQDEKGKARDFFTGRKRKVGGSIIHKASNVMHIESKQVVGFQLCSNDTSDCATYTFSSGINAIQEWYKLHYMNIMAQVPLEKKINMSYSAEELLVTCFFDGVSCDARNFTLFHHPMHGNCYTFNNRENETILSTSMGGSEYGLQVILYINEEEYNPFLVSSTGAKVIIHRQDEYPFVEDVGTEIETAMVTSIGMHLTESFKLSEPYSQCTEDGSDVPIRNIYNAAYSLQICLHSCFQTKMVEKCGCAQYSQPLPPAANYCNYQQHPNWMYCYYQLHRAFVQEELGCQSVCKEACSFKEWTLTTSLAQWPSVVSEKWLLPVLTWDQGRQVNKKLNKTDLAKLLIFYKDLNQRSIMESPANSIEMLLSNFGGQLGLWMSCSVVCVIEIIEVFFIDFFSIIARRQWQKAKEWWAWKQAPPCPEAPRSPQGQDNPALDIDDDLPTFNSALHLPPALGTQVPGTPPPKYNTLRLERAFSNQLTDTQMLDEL
Briefly: Short circuit current (ISC) measurements in human bronchial epithelial cells, inhibition of the amiloride-sensitive ISC. The class given is cell-based. To be noted: air-liquid interface culture, Ussing chamber, compound added to the apical chamber. Here is the method: Compounds of formula (I) and their pharmaceutically acceptable salts, hereinafter referred to alternatively as “agents of the invention”, are useful as pharmaceuticals. In particular, the compounds have good ENaC blocker activity and may be tested in the following assays.
Human Bronchial Epithelial cells (HBECS) (Cambrex) were cultured under air-liquid interface conditions to provide a well differentiated mucociliary phenotype.
HBECs were cultured using a modification of the method described by Gray and colleagues (Gray et al., 1996). […]
Snapwell inserts were mounted in Vertical Diffusion Chambers (Costar) and were bathed with continuously gassed Ringer solution (5% CO2 in O2; pH 7.4) maintained at 37° C. containing (in mM): 120 NaCl, 25 NaHCO3, 3.3 KH2PO4, 0.8 K2HPO4, 1.2 CaCl2, 1.2 MgCl2, and 10 glucose. […] RT was measured by applying a 1- or 2-mV pulse at 30-s intervals and calculating RT by Ohm's law. Data were recorded using a PowerLab workstation (ADInstruments).
Test compounds were prepared as a 10 mM stock solution in DMSO (95%). […] At the completion of the concentration-response experiment, amiloride (10 μM) was added into the apical chamber to enable the total amiloride-sensitive current to be measured. […]
Results are expressed as the mean % inhibition of the amiloride-sensitive ISC. […] Cell inserts were typically run in duplicate and the IC50 calculated on the mean % inhibition data.

For orientation: IC50 means the concentration needed to halve the response being measured. A high value points to weaker potency. As to `N=C(NCC1CCC(CNC(=N)NC(=O)c2nc(Cl)c(N)nc2N)CC1)NC(=O)c1nc(Cl)c(N)nc1N` (centres unmarked) [Example 2], the IC50 came out at 5.7 nM. For `N=C(NC(=O)c1nc(Cl)c(N)nc1N)N[C@H]1CC[C@H](NC(=N)NC(=O)c2nc(Cl)c(N)nc2N)CC1` [Example 5], the IC50 is 0.2 nM.
